Experimental data reported in patent US6495330B1, “Materials and methods relating to the diagnosis and treatment of pre-eclampsia and diabetes” (Rodaris Pharmaceuticals Limited, priority 1996, dated 2002).

Test system: rat adipocytes
Experiment: IPG A-type bioassay: stimulation of lipogenesis ([U14C] glucose into lipids) in adipocytes
Assay type: cell-based
Conditions: insulin standard assayed at the same time
Protocol: The activity of P- and A-type IPGs in urine and placental extracts were studied using specific bioassay procedures. IPG P-type was determined using the activation of PDH phosphatase. The PDH complex and PDH phosphatase (metal-dependent form) were prepared from beef heart as described by Lilley et al. and the assay of the activation of the phosphatase was performed by the spectrophotometric variant of the two-stage system described by these authors. This assay is considered to be a characteristic feature of IPG P-type (see Larner et al.) . IPG A-type was determined by the stimulation of lipogenesis as measured by the incorporation of [U^14C] glucose into the lipids of adipocytes isolated from epididymal fat pads by the method of Rodbell. A high degree of specificity for IPG A-type was found for this bioassay.
A straight line relationship between added IPGs and the stimulation of PDH phosphatase activity (IPG P-type) and lipogenesis in intact adipocytes (IPG A-type) was obtained; this relationship held at least up to a stimulation of +250%. These observations provided a basis for a unit to be defined and used for the purpose of comparison of yields of IPGs from different tissues and urine samples.
A unit of IPG is defined as the amount causing a 50% activation in the basal level of the test system.

For insulin [insulin standard], the “stimulation of lipogenesis above base-line” value was “+258%”.
